Key:
[1] = BAP in a honey emulsion fed to CD-1 mice: body weight, food and water intake; type: in vivo
Text: Male and female CD-1 mice were received at age 6-7 weeks and were acclimated on a chow diet for one week prior to experimentation. After acclimation to the facility, mice were switched to a 60% HFD. The male and female mice received HFD for 4 (male) and 5 or 16 (female) weeks prior to BAP exposure. The mice were then acclimated to the emulsion feeding protocol for 4 days prior to the start of BAP exposure using the method described in Kuster et al. (12). Two days prior to the start of the exposure period, a cohort of male mice underwent acute general anesthetic with isoflurane for baseline Bruker scanning to quantify peripheral fat mass. The mice were then weight-matched and randomly assigned to either the control or BAP group. During the exposure period, mice were restrained via scruffing (held at back of neck) and fed 200 μL of an emulsion containing 0.5% carboxymethyl cellulose and 50% honey with or without BAP at 2 hr prior to lights off at the facility daily.
[…] All mice were kept on the 60% HFD throughout the exposure period. […] On day 12, the one cohort of male mice underwent general anesthetic for the purpose of post-experiment Bruker scanning. The male mice were then fed their assigned emulsion 2 hr prior to sacrificing and tissue collection. […] Hypothalamic collected from the mice were then used to isolate RNA and quantify gene expression using quantitative reverse transcription polymerase chain reaction (qRT-PCR).

mHypoE-46 cell line = test: Gene expression by qRT-PCR in mHypoE-46 hypothalamic cell line; type: cell-based, mouse; design: insulin receptor subunit beta (Insrb) expression by qRT-PCR: dose or concentration left out as unconfirmed; conditions: for effect of PKA inhibition on BAP effect on Npy expression: n=2
Method: (§1) Hypothalamic neurons from embryonic and adult mice were previously immortalized to generate the clonal cell lines mHypoE-46, mHypoE-44, mHypoE-41, mHypoE-38, mHypoA-59, a FAC-sorted POMC/GFP mouse-derived cell line, mHypoA-POMC/GFP-2, and a mixed culture mHypoA-Bmal1-WT/F cell line (6, 13, 14). The mHypoE-46, mHypoE-44, and mHypoA-Bmal1-WT/F lines were cultured in DMEM containing 1000 mg/L glucose supplemented with 5% FBS and 1% pen/strep. The mHypoE-41, mHypoE-38, and mHypoA-59 cell lines were cultured in DMEM containing 4500 mg/L glucose supplemented with 2% FBS and 1% pen/strep. The mHypoA-POMC/GFP-2 line was cultured in DMEM containing 1000 mg/L glucose supplemented with 2% FBS and 1% pen/strep. All cells were maintained in 5% CO2 at 37° C. BAP was initially dissolved in DMSO solvent (vehicle control) to achieve 1000x the intended dose. The BAP solution was then diluted 1:1000 with the growth media used for the cell line. For co-treatment experiments, the vehicle control for ATP, UDP, and PKI was water, and for the H89 PKA inhibitor was DMSO. Neuropeptide gene expression levels were determined by qRT-PCR.
(§2) For cell culture experiments, total RNA was isolated using PureLink RNA isolation kit (Thermofisher Scientific, Burlington, ON, Canada) according to the manufacturer's instruction with on column DNase step (PureLink DNAse kit) or DNase I treatment to remove genomic DNA. For mouse experiments, total RNA was isolated using mirVana PARIS RNA and native protein isolation kit (Thermofisher Scientific). RNA quality and quantity were measured using Nanodrop 2000 and 500-1000 ng of complimentary DNA (cDNA) was synthesized with High Capacity cDNA Reverse Transcription kit (Applied biosystems, Thermofisher Scientific). Quantitative reverse transcription polymerase chain reaction (RT-qPCR) was performed with 12.5 ng of cDNA amplified with Platinum SYBR green qPCR SuperMix-UDG with ROX on an Applied Biosystems Prism 7900HT or PowerTrack Green Master Mix on an Applied Biosystems QuantStudio 5 and gene specific primers as per manufacturer's instructions (Table 1). Data was analyzed using […] and normalized to reference gene, either 60S ribosomal protein L7 (Rpl7) or Histone 3a (His).

mHypoA-59 cell line = test: Gene expression by qRT-PCR in mHypoA-59 hypothalamic cell line; type: cell-based, mouse; conditions: 100 μM BAP, 16 hr
Method: as §1, §2

[2] = system: mHypoA-POMC/GFP-2 cell line; test: Gene expression by qRT-PCR in mHypoA-POMC/GFP-2 hypothalamic cell line; type: cell-based, mouse; conditions: 100 μM BAP, 16 hr
Method: as §1, with “All cells were maintained in 5% CO2 at 37° C. BAP was initially dissolved in DMSO solvent (vehicle control) to achieve 1000x the intended dose. The BAP solution was then diluted 1:1000 with the growth media used for the cell line. For co-treatment experiments, the vehicle control for ATP, UDP, and PKI was water, and for the H89 PKA inhibitor was DMSO.” left out
For cell culture experiments, total RNA was isolated using PureLink RNA isolation kit (Thermofisher Scientific, Burlington, ON, Canada) according to the manufacturer's instruction with on column DNase step (PureLink DNAse kit) or DNase I treatment to remove genomic DNA. […] RNA quality and quantity were measured using Nanodrop 2000 and 500-1000 ng of complimentary DNA (cDNA) was synthesized with High Capacity cDNA Reverse Transcription kit (Applied biosystems, Thermofisher Scientific). […] Data was analyzed using […] and normalized to reference gene, either 60S ribosomal protein L7 (Rpl7) or Histone 3a (His).

[3] = male CD-1, 60% HFD, 300 mg/kg/day BAP emulsion, 11 days, cohort CCBR
[4] = male CD-1, 60% HFD, 300 mg/kg/day BAP emulsion, 14 days, cohort BSF
[5] = male CD-1, 60% HFD, 300 mg/kg/day BAP emulsion, 28 days, cohort BSF
[6] = 100 μM BAP, validation of RNAseq (FIG. 42A 4 hr, 42B 16 hr)

SMILES: c1ccc(CNc2ncnc3nc[nH]c23)cc1 [BAP, N6-benzylaminopurine]
- body weight gain on HFD ([1]; female CD-1, 16 weeks 60% HFD then 300 mg/kg/day BAP emulsion 36 days, cohort BSF): did not gain weight
- food intake vs control ([1]; female CD-1, 60% HFD, 300 mg/kg/day BAP emulsion 36 days, cohort BSF): did not eat significantly less HFD
- body weight change vs control ([1]; male CD-1, 60% HFD, 75 mg/kg/day BAP emulsion, 14 days): no change
- body weight gain on HFD ([1]; male CD-1, 60% HFD, 150 mg/kg/day BAP emulsion, 14 days, cohort BSF): did not gain weight
- body weight loss [1, 3]: 5%
- reduction in HFD food intake vs control group over the exposure period [1, 3]: 22%
- body weight loss [1, 4]: 1.3%
- daily average food intake vs control [1, 4]: did not eat significantly less HFD
- body weight loss ([1]; male CD-1, 60% HFD, 300 mg/kg/day BAP emulsion, 14 days, dose study, cohort BSF): 1.1%
- food intake ([1]; male CD-1, 60% HFD, 300 mg/kg/day BAP emulsion, 14 days, dose study, significant by unpaired t-test at 8 days onward): trend towards a decrease in food intake that did not reach significance
- body weight loss [1, 5]: 5%
- reduction in daily average food intake vs control [1, 5]: 13%
- cumulative daily food intake ([1]; male CD-1, 60% HFD, 75, 150, 300 mg/kg BAP emulsion, 14 days): do not have significant changes in food intake
- effect of PKA inhibition on BAP effect on Npy expression (mHypoE-46 cell line; 100 μM BAP + 1 μM H89, 16 hr): unable to block the effects of BAP on Npy expression
- effect of PKA inhibition on BAP effect on Npy expression (mHypoE-46 cell line; 100 μM BAP + 10 μM PKI, 16 hr): unable to block the effects of BAP on Npy expression
- Npy expression under co-treatment with palmitate (mHypoE-46 cell line; 100 μM BAP + 50 μM palmitate, 16 hr): rescues the palmitate-mediated increase in Npy expression
- Npy mRNA under co-treatment with ATP (mHypoE-46 cell line; 100 μM BAP + 100 μM ATP, 16 hr): overcome this induction and supress Npy mRNA levels
- Npy mRNA under co-treatment with UDP (mHypoE-46 cell line; 100 μM BAP + 100 μM UDP, 16 hr): still able to supress the gene
- Npy mRNA under co-treatment with UTP (mHypoE-46 cell line; 100 μM BAP + 100 μM UTP, 16 hr, n=2 preliminary): still able to supress the gene
- PI3K subunit (Pik3r1) gene expression (mHypoE-46 cell line; 100 μM BAP, 4 and 16 h): significantly increased
- Nadpk1 expression level (mHypoE-46 cell line; 100 μM BAP, 16 h): significantly decreased
- Nadpk2 expression level (mHypoE-46 cell line; 100 μM BAP, 16 h): not changed
- Agrp mRNA expression (mHypoE-46 cell line; 100 μM BAP, 16 hr): increased
- Npy mRNA expression (mHypoE-46 cell line; 100 μM BAP, 16 hr): supressed
- 4e-BP1 (Eif4ebp1) gene expression (mHypoE-46 cell line; [6]): increased
- ULK1 (Ulk1) gene expression (mHypoE-46 cell line; [6]): increased
- sestrin2 (Sesn2) gene expression (mHypoE-46 cell line; [6]): increased
- tuberous sclerosis complex 2 (Tsc2) gene expression (mHypoE-46 cell line; [6]): increased
- Npy mRNA expression, time course (mHypoE-46 cell line; 100 μM BAP, all time points tested: 2, 4, 8, 16, and 24 hr): significantly downregulate
- insulin receptor subunit beta (Insrb) expression by qRT-PCR (mHypoE-46 cell line; BAP, 16 h): increased
- BAP dose at which magnitude of Npy downregulation plateaus (mHypoE-46 cell line; dose curve, 16 hr): 250 µM
- lowest BAP concentration significantly decreasing Npy mRNA expression (mHypoE-46 cell line; dose curve, 16 hr): 50 µM
- Npy mRNA expression (mHypoA-59 cell line): no effect
- feeding neuropeptide expression (Npy, Agrp) in response to BAP (mHypoA-59 cell line): no changes in feeding neuropeptide expression
- Pomc expression [2]: significantly induced

— patent US20260034135A1, “USE OF N6-BENZYLAMINOPURINE AS AN APPETITE SUPPRESSANT” (THE GOVERNING COUNCIL OF THE UNIVERSITY OF TORONTO, priority 2022, published 2026)
